In patent publication US9242996B2 (Novartis AG, priority 2013, dated 2016):

What follows are compounds tested against activated ERK2 (Homo sapiens (Human), UniProt P28482) (assay: Activated ERK2 kinase assay, ERK2 New conditions (AlphaScreen, ERKtide phosphorylation)). Settings: 0.25 nM ERK2, 200 nM ERKtide peptide, 35 μM ATP, 30 min preincubation.
Assay type: biochemical
Procedure, shortened: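 0.25 nM ERK2 preincubated 30 min with compound, then reacted 2–3 h at ambient temperature with 200 nM ERKtide and 35 µM ATP (final) in HEPES pH 7.5 buffer. EDTA stop; phospho-peptide detected by AlphaScreen after overnight incubation; IC50 from four-parameter fit.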

Sequence of activated ERK2 (P28482 whole entry): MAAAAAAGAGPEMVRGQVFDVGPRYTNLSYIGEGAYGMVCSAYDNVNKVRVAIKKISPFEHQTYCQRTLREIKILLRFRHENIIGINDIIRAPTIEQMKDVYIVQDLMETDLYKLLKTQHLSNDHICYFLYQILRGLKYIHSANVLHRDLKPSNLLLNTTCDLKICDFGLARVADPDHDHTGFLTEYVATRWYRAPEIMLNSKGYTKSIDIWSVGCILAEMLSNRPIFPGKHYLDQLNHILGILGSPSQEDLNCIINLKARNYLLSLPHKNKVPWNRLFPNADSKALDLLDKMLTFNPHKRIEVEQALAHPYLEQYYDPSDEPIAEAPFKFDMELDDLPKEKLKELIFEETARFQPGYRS

Row | SMILES | IC50
1 | Nc1ncc(C2CC2)nc1-c1ccc(C(=O)N[C@H](CO)c2ccccc2)c(F)c1 [Example 251, (S)-4-(3-amino-6-cyclo-propylpyrazin-2-yl)-2-fluoro-N-(2-hydroxy-1-phenylethyl) benzamide] | 7.04 nM
2 | NC[C@@H](NC(=O)c1ccc(-c2nc(C3CC3)cnc2N)cc1F)c1ccccc1 [Example 252, (S)-N-(2-amino-1-phenylethyl)-4-(3-amino-6-cyclo-propylpyrazin-2-yl)-2-fluorobenzamide] | 2.6 nM
3 | Nc1ncc(-c2cn[nH]c2)nc1-c1ccc(C(=O)N[C@H](CO)c2ccccc2)c(F)c1 [Example 268, (S)-4-(3-amino-6-(1H-pyrazol-4-yl)pyrazin-2-yl)-2-fluoro-N-(2-hydroxy-1-phenylethyl) benzamide] | 4.8 nM
4 | Cc1cc(-c2cc(-c3cnn(C)c3)cnc2N)ccc1C(=O)N[C@H](CO)c1ccccc1 [Example 269, (S)-4-(2-amino-5-(1-methyl-1H-pyrazol-4-yl)pyridin-3-yl)-N-(2-hydroxy-1-phenylethyl)-2-methylbenzamide] | 1.08 nM
5 | Cn1cc(-c2cnc(N)c(-c3ccc(C(=O)N[C@H](CO)c4cccc(F)c4)c(F)c3)n2)cn1 [Example 280, (S)-4-(3-amino-6-(1-methyl-1H-pyrazol-4-yl)pyrazin-2-yl)-2-fluoro-N-(1-(3-fluorophenyl)-2-hydroxyethyl) benzamide] | 1.66 nM
6 | CS(=O)(=O)c1cccc([C@@H](CO)NC(=O)c2ccc(-c3nc(C4CC4)cnc3N)cc2F)c1 [Example 281, (S)-4-(3-amino-6-cyclo-propylpyrazin-2-yl)-2-fluoro-N-(2-hydroxy-1-(3-(methylsulfonyl)phenyl)ethyl) benzamide] | 1.79 nM
7 | Cc1nn(C)cc1-c1cnc(N)c(-c2ccc(C(=O)N[C@H](CO)c3cccc(F)c3)c(F)c2)c1 [Example 282, (S)-4-(2-amino-5-(1,3-dimethyl-1H-pyrazol-4-yl)pyridin-3-yl)-2-fluoro-N-(1-(3-fluorophenyl)-2-hydroxyethyl) benzamide] | 1.2 nM
8 | Cc1nn(C)cc1-c1cnc(N)c(-c2ccc(C(=O)N[C@H](CO)c3cccc(S(C)(=O)=O)c3)c(F)c2)c1 [Example 284, (S)-4-(2-amino-5-(1,3-dimethyl-1H-pyrazol-4-yl)pyridin-3-yl)-2-fluoro-N-(2-hydroxy-1-(3-(methylsulfonyl)phenyl)ethyl) benzamide] | 0.296 nM
9 | CS(=O)(=O)c1cc(F)cc(CNC(=O)c2ccc(-c3nc(C4CC4)cnc3N)cc2F)c1 [Example 286, 4-(3-amino-6-cyclo-propylpyrazin-2-yl)-2-fluoro-N-(3-fluoro-5-(methylsulfonyl)benzyl)benzamide] | 3.9 nM
10 | C[C@@H](NC(=O)c1ccc(-c2nc(C3CC3)cnc2N)cc1F)c1cc(F)cc(S(C)(=O)=O)c1 [Example 287, (R)-4-(3-amino-6-cyclo-propylpyrazin-2-yl)-2-fluoro-N-(1-(3-fluoro-5-(methylsulfonyl)phenyl)ethyl) benzamide] | 0.794 nM
11 | C[C@@H](NC(=O)c1ccc(-c2cc(C3CC3)cnc2N)cc1F)c1cc(F)cc(S(C)(=O)=O)c1 [Example 288, (R)-4-(2-amino-5-cyclo-propylpyridin-3-yl)-2-fluoro-N-(1-(3-fluoro-5-(methylsulfonyl)phenyl)ethyl) benzamide] | 2.03 nM
12 | Nc1ncc(-c2cn[nH]c2)cc1-c1ccc(C(=O)N[C@H](CO)c2ccccc2)c(F)c1 [Example 290, (S)-4-(2-amino-5-(1H-pyrazol-4-yl)pyridin-3-yl)-2-fluoro-N-(2-hydroxy-1-phenylethyl) benzamide] | 1.74 nM
13 | CC(C)n1cc(-c2cnc(N)c(-c3ccc(C(=O)N[C@H](CO)c4cccc(S(C)(=O)=O)c4)c(F)c3)c2)cn1 [Example 291, (S)-4-(2-amino-5-(1-isopropyl-1H-pyrazol-4-yl)pyridin-3-yl)-2-fluoro-N-(2-hydroxy-1-(3-(methylsulfonyl)phenyl)ethyl) benzamide] | 1.48 nM
14 | CC(C)n1cc(-c2cnc(N)c(-c3ccc(C(=O)N[C@H](CO)c4cccc(F)c4)c(F)c3)c2)cn1 [Example 292, (S)-4-(2-amino-5-(1-isopropyl-1H-pyrazol-4-yl)pyridin-3-yl)-2-fluoro-N-(1-(3-fluorophenyl)-2-hydroxyethyl) benzamide] | 2.82 nM
15 | Cc1c(-c2cnc(N)c(-c3ccc(C(=O)N[C@H](CO)c4cccc(F)c4)c(F)c3)c2)cnn1C [Example 295, (S)-4-(2-amino-5-(1,5-dimethyl-1H-pyrazol-4-yl)pyridin-3-yl)-2-fluoro-N-(1-(3-fluorophenyl)-2-hydroxyethyl) benzamide] | 0.595 nM
16 | CCn1cc(-c2cnc(N)c(-c3ccc(C(=O)N[C@H](CO)c4cccc(S(C)(=O)=O)c4)c(F)c3)c2)cn1 [Example 296, (S)-4-(2-amino-5-(1-ethyl-1H-pyrazol-4-yl)pyridin-3-yl)-2-fluoro-N-(2-hydroxy-1-(3-(methylsulfonyl)phenyl)ethyl) benzamide] | 1.08 nM
17 | CCn1cc(-c2cnc(N)c(-c3ccc(C(=O)N[C@H](CO)c4cccc(F)c4)c(F)c3)c2)cn1 [Example 298, (S)-4-(2-amino-5-(1-ethyl-1H-pyrazol-4-yl)pyridin-3-yl)-2-fluoro-N-(1-(3-fluorophenyl)-2-hydroxyethyl) benzamide] | 1.95 nM

Continued, values first:

Row | IC50 | SMILES
18 | 3.57 nM | CCn1cc(-c2cnc(N)c(-c3ccc(C(=O)N[C@H](C)c4cccc(S(C)(=O)=O)c4)c(F)c3)c2)cn1 [Example 299, (R)-4-(2-amino-5-(1-ethyl-1H-pyrazol-4-yl)pyridin-3-yl)-2-fluoro-N-(1-(3-(methylsulfonyl)phenyl)ethyl) benzamide]
19 | 0.221 nM | C[C@@H](NC(=O)c1ccc(-c2cc(-c3cnnn3C)cnc2N)cc1F)c1cccc(Cl)c1 [Example 303, (R)-4-(2-amino-5-(1-methyl-1H-1,2,3-triazol-5-yl)pyridin-3-yl)-N-(1-(3-chlorophenyl)ethyl)-2-fluorobenzamide]
20 | 2.5 nM | Cn1nncc1-c1cnc(N)c(-c2ccc(C(=O)N[C@H](CO)c3ccccc3)c(F)c2)c1 [Example 304, (S)-4-(2-amino-5-(1-methyl-1H-1,2,3-triazol-5-yl)pyridin-3-yl)-2-fluoro-N-(2-hydroxy-1-phenylethyl) benzamide]
21 | 1.91 nM | Cn1nncc1-c1cnc(N)c(-c2ccc(C(=O)N[C@H](CO)c3cccc(F)c3)c(F)c2)c1 [Example 305, (S)-4-(2-amino-5-(1-methyl-1H-1,2,3-triazol-5-yl)pyridin-3-yl)-2-fluoro-N-(1-(3-fluorophenyl)-2-hydroxyethyl) benzamide]
22 | 0.378 nM | Cc1cccc([C@@H](CO)NC(=O)c2ccc(-c3cc(-c4cnnn4C)cnc3N)cc2F)c1 [Example 306, (S)-4-(2-amino-5-(1-methyl-1H-1,2,3-triazol-5-yl)pyridin-3-yl)-2-fluoro-N-(2-hydroxy-1-(m-tolyl)ethyl) benzamide]
23 | 0.2 nM | Cn1cc(-c2cnc(N)c(-c3ccc(C(=O)NC(CN)c4cccc(Cl)c4)c(F)c3)c2)cn1 (stereo not drawn) [Example 307, N-(2-amino-1-(3-chlorophenyl)ethyl)-4-(2-amino-5-(1-methyl-1H-pyrazol-4-yl)pyridin-3-yl)-2-fluorobenzamide]
24 | 0.242 nM | CS(=O)(=O)c1cc(F)cc(CNC(=O)c2ccc(-c3nc(C4CCOCC4)cnc3N)cc2F)c1 [Example 310, 4-(3-amino-6-(tetrahydro-2H-pyran-4-yl)pyrazin-2-yl)-2-fluoro-N-(3-fluoro-5-(methylsulfonyl)benzyl)benzamide]
